Data from patent publication US20260015599A1, “TARGETING THE STING1 GENE BY CRISPR ACTIVATION” (AARHUS UNIVERSITET, priority 2022, published 2026).
Like-named read-outs stand apart in the source and are kept apart here.

Tests used:
[1] = tested on: cGAS-STING signalling pathway; experiment: Stimulation of human sarcoma cell lines with cGAS, STING and RIG-I agonists, cytokine secretion; assay type: cell-based
Protocol: For stimulation in vitro, 30,000 or 60,000 cells were seeded per well in a 24-well plate one day prior to stimulation. Cells were stimulated by transfection using Lipofectamine 2000 transfection reagent (Invitrogen, Cat#: 11668019) combined with the following agents: 2 μg/mL HT-DNA (Sigma-Aldrich, Cat#: D6898), 8 μg/mL 2′3′-cGAMP (Invivogen, Cat#: tlrl-nacga23-5), and 40 ng/ml Poly(I:C)-LMW (Invivogen, Cat#: tlrl-picw). An untreated control and a lipofectamine 2000 control were included. All samples were run in biological duplicates or triplicates. […]
Supernatants from cells stimulated with HT-DNA and Poly(I:C) were analyzed for Interferonβ (IFNβ), CXCL10 and IL-6 using Meso Scale Discovery multiplex Enzyme-linked Immunosorbent assay.
Supernatants from cells stimulated with 2′3′-cGAMP were analyzed for CXCL10 and IL-6 using sandwich ELISA (RnD Systems, Cat#: DY299 and Cat#: DY206). CCL5 content in supernatants from cells stimulated with HT-DNA and Poly(I:C) were analyzed using sandwich ELISA (RnD Systems, Cat#: DY278). […]
Functional type I IFN in supernatants from cells stimulated with 2′3′-cGAMP was quantified using a type I interferon reporter cell assay (HEK-Blue IFN-α/β) (Invivogen, Cat#: hkb-ifnab) according to manufacturer's guidelines. […] The concentration of type I IFN was determined from a standard curve of IFN-a (PBL Assay Science, Cat#: 11100-1). […]

[2] = tested on: human STING gene; experiment: CRISPR activation of STING in SW872, STING expression by immunoblotting and qPCR; assay type: cell-based; settings: SW872, electroporated with dCas9-VPR mRNA, 48 hours
Excerpt: To upregulate STING, CRISPR activation technique was used. Synthetic guideRNAs (sgRNAs) are used to guide a deactivated Cas9 (dCas9) to a site in the vicinity of the transcriptional start site of STING. Attached to the dCas9 are three transcription activators (VP64, Rta, p65; collectively termed VPR), which can activate transcription of the target gene. The dCas9-VPR is delivered as mRNA and is translated by the translation apparatus in the host cell.
To test the ability of the individual sgRNAs to upregulate STING expression, each sgRNA was tested individually as well as all 5 sgRNAs together in the human sarcoma cell line SW872 or HT1080. The sequence of the DNA binding part of the 5 sgRNAs were the following:
sgRNAs were purchased from Synthego and comprise 2′-O-Methyl at the three first and last bases as well as 3′ phosphorothioate bonds between the first three and last two bases.
dCas9-VPR mRNA (SEQ ID NO: 29 as produced by in vitro transcription) (or purchased from Horizon Discovery, Cat#: CAS12211) comprises full substitution of uridine with pseudouridine and cotranscriptional capping with CleanCap AG in a 1:4 ratio between GTP and CleanCap.
For each sample 500,000 cells were resuspended in PBS, spun down at 300 xg for 5 minutes at room temperature (RT) and resuspended in 17 μL opti-MEM (Gibco, Cat#: 31985070). 1.9 μL of dCas9-VPR mRNA (Horizon Discovery, Cat#: CAS12211) (SEQ ID NO: 29) and 1 μg of sgRNA (1 μg of each sgRNA in the sample with all 5 sgRNAs) were added. The cell suspensions were added to an electroporation strip and electroporated on a Lonza 4D nucleofector using pulse code CM138. Afterwards, the electroporation strip containing the cells were left for 3 minutes on the bench top to allow cells to reform. The samples were diluted in preheated DMEM complete medium and cells were seeded at 50-100.000 cells per well in a 24-well plate and left for various days before harvest. […]

[3] = tested on: STING; experiment: Cytokine gene expression (qPCR) in STING-reactivated SW872 after doxorubicin treatment; assay type: cell-based, human; settings: SW872 after CRISPRa targeting STING (sgRNA #4 + dCas9-VPR mRNA), doxorubicin at IC50, 48 hrs
Protocol: For each sample 500,000 cells were resuspended in PBS, spun down at 300 xG for 5 minutes at room temperature (RT) and resuspended in 17 μL opti-MEM (Gibco, Cat#: 31985070). 1.9 μL of dCas9-VPR mRNA (Horizon Discovery, Cat#: CAS12211) and 1 μg of sgRNA was added. The cell suspension was added to an electroporation strip and electroporated on a Lonza 4D nucleofector using pulse code CM138. Afterwards, the electroporation strip containing the cells was left for 3 minutes on the bench top to allow cells to reform. The samples were diluted in preheated DMEM complete and 60,000 wt cells and 120,000 mock and STING+ cells were seeded in a 12-well plate one day prior to doxorubicin treatment to allow cells to adhere.
(§1) Wt, mock and STING+ cells were treated with IC50 values of doxorubicin in biological triplicates (IC50 for wt: 0.5 μM and IC50 for mock and STING+: 0.3 μM) and left for 48 hrs before harvest.
RNA from cells was purified using NucleoSpin RNA for the isolation of total RNA (Macherey-Nagel, Cat#: 740984.250M) according to manufacturer's guidelines. cDNA was synthesized using iScript cDNA Synthesis Kit (Bio-Rad, Cat#: 1708891) according to manufacturer's guidelines using 400ng of RNA. Real-time PCR was carried out using 1 μL of 10 ng/μL cDNA in a total volume of 10 μL using KAPA SYBR FAST (Roche, Cat#: KK4611) and the following targets and primers: […]
Samples were run in biological triplicates and technical duplicates on a 384 well plate (Hounisen, Cat#: 72.1985.202). The analysis was performed using the LightCycler 480 software version LCS480 1.5.1.62(Roche).
The cancer cell line SW872 was electroporated with dCas9-VPR mRNA and either nothing (mock) or sgRNA #4 and after additional 24 hrs each cell condition was exposed to the anthracycline chemotherapy drug doxorubicin. Doxorubicin's mode-of-action is to increase DNA damage leakage and this has shown to induce a STING-dependent immune response in conjunction to the cellular toxicity is has on cancer cells.
Supernatants were collected 48 hrs after doxorubicin treatment and immune activation was assessed by qPCR (FIG. 8A-E).

[4] = tested on: SW872; experiment: Doxorubicin IC50 viability determination (CellTiter 96 AQueous One Solution Cell Proliferation Assay); assay type: cell-based; settings: Homo sapiens, SW872, 48 h, 48 hrs of treatment, read-out: IC50 viability concentration
Protocol: Prior to analysing the immunological reponse to doxorubicin treatment (Sigma-Aldrich, Cat#: D1515-10 MG), and IC50 viability concentration was determined for both wt cells and electroporated cells (mock and STING+). A two-fold dilution of doxorubicin including 10 different dilutions ranging from 16 μM to 0.03125 μM was added to a cell culture and viability was determined using CellTiter 96 AQueous One Solution Cell Proliferation Assay (Promega, Cat#: G3580) after 48 hrs of treatment.
as §1

Question: How did the “cell responsiveness (secretion levels of IFNb, CXCL10, IL6 or CCL5)” value ([1]; all four cell lines (HT-1080, SW872, SW982, SK-LMS1), 20-24 hours of activation) turn out when Poly(I:C) was run?
Answer: responded

Question: Which “STING expression (immunoblotting, qPCR)” value [2] does the source give for “sgRNA #4: sgRNA targeting human STING gene, DNA binding part CAGAAACCGGCAGGCUCUCU (listed as RNA, chemistry not fully specified)” here?
Answer: equally or better than the combination of all five sgRNAs

Question: What about the “STING expression (immunoblotting, qPCR)” value ([2]; listed as SEQ ID NO: 4) of the same molecule?
Answer: highest activity

Question: What about the “STING expression (immunoblotting, qPCR)” value ([2]; listed as sgRNA#4) of the same molecule?
Answer: highest expression level

Question: `Nc1nc2c(ncn2[C@@H]2O[C@@H]3COP(=O)(O)O[C@H]4[C@@H](O)[C@H](n5cnc6c(N)ncnc65)O[C@@H]4COP(=O)(O)O[C@@H]2[C@@H]3O)c(=O)[nH]1` [2′3′-cGAMP, 2′,3′-cyclic GMP-AMP] was tested. Which “cell responsiveness (secretion levels of IFNb, CXCL10, IL6 or CCL5)” value ([1]; SW872, 20-24 hours of activation) did it give?
Answer: not responding

Question: Which “gene expression of CCL5” value [3] does the source give for `COc1cccc2c1C(=O)c1c(O)c3c(c(O)c1C2=O)C[C@@](O)(C(=O)CO)C[C@@H]3O[C@H]1C[C@H](N)[C@H](O)[C@H](C)O1` [doxorubicin] here?
Answer: increased

Question: What about the “gene expression of CXCL10” value [3] of the same molecule?
Answer: increased

Question: And the “gene expression of IFNb” value [3]?
Answer: increased

Question: And the IC50 ([4]; mock and STING+ (electroporated) SW872 cells)?
Answer: 300 nM

Question: What about the IC50 ([4]; wt SW872 cells) of the same molecule?
Answer: 500 nM
